We go through 28 molecules from patent US8026243B2, “[4,5′]Bipyrimidinyl-6,4′-diamine derivatives as protein kinase inhibitors” (Novartis AG, priority 2006, dated 2011).

What is called GI50 is the concentration that inhibits growth by half.

SMILES strings stand for the structures.

This experiment deals with T1, Ba/F3-TEL-FGFR3 cells (Homo sapiens, UniProt P22607).
T1 construct: fused on or other part: The N-terminal oligomerising part of TEL (ETV6) is fused before the intracellular kinase part of FGFR3; P41212 (Transcription factor ETV6)
Nature of the experiment: FGFR3 cellular assay: proliferation of transformed Ba/F3-TEL-FGFR3 cells (AlamarBlue). It counts as cell-based. As to conditions: 48 hours incubation. On the procedure:
Compounds of the invention are tested for their ability to inhibit transformed Ba/F3-TEL-FGFR3 cells proliferation, which is dependent on FGFR3 cellular kinase activity. Ba/F3-TEL-FGFR3 are cultured up to 800,000 cells/mL in suspension, with RPMI 1640 supplemented with 10% fetal bovine serum as the culture medium. Cells are dispensed into 384-well format plate at 5000 cell/well in […], culture medium. Compounds of the invention are dissolved and diluted in dimethylsulfoxide (DMSO). Twelve points 1:3 serial dilutions are made into DMSO to create concentrations gradient ranging typically from 10 mM to 0.05 μM. Cells are added with 50 nL of diluted compounds and incubated for 48 hours in cell culture incubator. AlamarBlue® (TREK Diagnostic Systems), which can be used to monitor the reducing environment created by proliferating cells, are added to cells at final concentration of 10%. After additional four hours of incubation in a 37° C. cell culture incubator, fluorescence signals from reduced AlamarBlue® (Excitation at 530 nm, Emission at 580 nm) are quantified on Analyst GT (Molecular Devices Corp.). IC50 values are calculated by linear regression analysis of the percentage inhibition of each compound at 12 concentrations.

T1 sequence (P22607 whole entry, change not shown, the tested form may be a part): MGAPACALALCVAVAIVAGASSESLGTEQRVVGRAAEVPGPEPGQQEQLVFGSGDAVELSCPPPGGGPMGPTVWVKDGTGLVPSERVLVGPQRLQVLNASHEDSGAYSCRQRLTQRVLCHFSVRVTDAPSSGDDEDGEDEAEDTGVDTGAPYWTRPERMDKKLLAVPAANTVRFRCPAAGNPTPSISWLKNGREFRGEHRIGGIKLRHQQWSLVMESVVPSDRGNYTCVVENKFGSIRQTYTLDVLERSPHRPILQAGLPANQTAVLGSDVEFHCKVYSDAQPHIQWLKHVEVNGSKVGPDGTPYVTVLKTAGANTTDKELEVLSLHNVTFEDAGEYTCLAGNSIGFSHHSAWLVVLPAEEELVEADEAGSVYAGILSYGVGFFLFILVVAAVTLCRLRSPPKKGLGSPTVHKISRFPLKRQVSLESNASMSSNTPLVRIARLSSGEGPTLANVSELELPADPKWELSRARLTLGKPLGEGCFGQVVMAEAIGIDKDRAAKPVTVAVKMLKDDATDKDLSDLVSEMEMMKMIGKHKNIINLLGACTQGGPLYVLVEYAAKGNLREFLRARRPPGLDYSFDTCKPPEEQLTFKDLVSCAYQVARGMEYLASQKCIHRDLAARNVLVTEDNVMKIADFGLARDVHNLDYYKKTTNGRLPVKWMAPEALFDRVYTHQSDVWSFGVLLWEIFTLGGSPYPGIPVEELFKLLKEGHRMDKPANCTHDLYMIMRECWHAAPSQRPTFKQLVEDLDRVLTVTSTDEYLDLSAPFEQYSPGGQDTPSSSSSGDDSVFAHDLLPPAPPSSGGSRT

For the molecule `CCNC(=O)c1cc(OC)c(Cl)c(Nc2ncncc2-c2cc(Nc3ccc(CN(C)C)cn3)ncn2)c1Cl` [Compound 31, 2,4-Dichloro-3-[6-(5-dimethylaminomethyl-pyridin-2-ylamino)-[4,5′]bipyrimidinyl-4′-ylamino]-N-ethyl-5-methoxy-benzamide], where the note is “class symbols”, the GI50 was < 0.1 µM. In the case of `CCN1CCN(c2ccc(Nc3cc(-c4cncnc4Nc4cc(OC)cc(OC)c4F)ncn3)nc2)CC1` [Compound 72, N6-[5-(4-Ethyl-piperazin-1-yl)-pyridin-2-yl]-N4′-(2-fluoro-3,5-dimethoxy-phenyl)-[4,5′]bipyrimidinyl-6,4′-diamine], the concentration for 50% growth inhibition (GI50) (class symbols) is < 0.1 µM. The same measure, in the same setting: to `CCNC(=O)c1cc(OC)c(Cl)c(Nc2ncncc2-c2cc(Nc3ccc(N4CCN(CC)CC4)cc3)ncn2)c1Cl` [Compound 36, 2,4-Dichloro-N-ethyl-3-{6-[4-(4-ethyl-piperazin-1-yl)-phenylamino]-[4,5′]bipyrimidinyl-4′-ylamino}-5-methoxy-benzamide] belongs < 0.1 µM.

As for `COc1cc(OC)c(F)c(Nc2ncncc2-c2cc(Nc3ccc(CN4CCN(CCO)CC4)cn3)ncn2)c1F` [Compound 74, 2-(4-{6-[4′-(2,6-Difluoro-3,5-di-methoxy-phenylamino)-[4,5′]bipyrimidinyl-6-ylamino]-pyridin-3-ylmethyl}-piperazin-1-yl)-ethanol], the GI50 (class symbols) is < 0.1 µM. On the same count and under the same terms, under `COc1cc(C(=O)Nc2cccc(C(F)(F)F)c2)c(Cl)c(Nc2ncncc2-c2cc(Nc3ccc(CN4CCOCC4)cn3)ncn2)c1Cl` [Compound 92, 2,4-dichloro-5-methoxy-3-(6-(5-(morpholinomethyl)pyridin-2-ylamino)-4,5′-bipyrimidin-4′-ylamino)-N-(3-(trifluoromethyl)phenyl)benzamide] stands < 0.1 µM. Same read-out and setting: under `COC(=O)c1cc(OC)c(Cl)c(Nc2ncncc2-c2cc(N)ncn2)c1Cl` [Compound 23, 3-(6-Amino-[4,5′]bipyrimidinyl-4′-ylamino)-2,4-dichloro-5-methoxy-benzoic acid methyl ester] stands 0.25 to 0.5 µM.

As for `COc1cc(OC)c(Cl)c(Nc2ncncc2-c2cc(Nc3ccc(CN4CCN(C(=O)CO)CC4)cn3)ncn2)c1Cl` [Compound 87, 1-(4-{6-[4′-(2,6-Dichloro-3,5-dimethoxy-phenylamino)-[4,5′]bipyrimidinyl-6-ylamino]-pyridin-3-ylmethyl}-piperazin-1-yl)-2-hydroxy-ethanone], the concentration for 50% growth inhibition (GI50) (class symbols) is < 0.1 µM. On the same count and under the same terms, to `COc1cc(OC)c(Cl)c(Nc2nccnc2-c2cc(Nc3ccc(C(C)O)cn3)ncn2)c1Cl` (stereo not shown) [Compound 102, {6-[3-(2,6-Dichloro-3,5-dimethoxy-phenylamino)-pyrazin-2-yl]-pyrimidin-4-yl}-(5-[1-hydroxyethyl]-pyridin-2-yl)-amine] belongs < 0.1 µM. Same read-out and setting: to `COc1cc(OC)c(Cl)c(Nc2ncncc2-c2cc(Nc3ccc(CN(C)C)cn3)ncn2)c1Cl` [Compound 7, N4′-(2,6-Dichloro-3,5-dimethoxy-phenyl)-N6-(5-dimethylaminomethyl-pyridin-2-yl)-[4,5′]bipyrimidinyl-6,4′-diamine] belongs < 0.1 µM; to `COc1cc(OC)c(Cl)c(Nc2ncncc2-c2cc(NCCCCN(C)C)ncn2)c1Cl` [Compound 13, N4′-(2,6-Dichloro-3,5-dimethoxy-phenyl)-N6-(4-dimethylamino-butyl)-[4,5′]bipyrimidinyl-6,4′-diamine], 0.25 to 0.5 µM.

As to `COc1cc(OC)c(Cl)c(Nc2nccnc2-c2cc(Nc3ccc(CN4CCOCC4)cn3)ncn2)c1F` [Compound 95, {6-[3-(2-chloro-3,5-dimethoxy-6-fluoro phenylamino)-pyrazin-2-yl]-pyrimidin-4-yl}-(5-morpholin-4-ylmethyl-pyridin-2-yl)-amine], the concentration for 50% growth inhibition (GI50) (class symbols) is < 0.1 µM. Still for that read-out and setting: under `COc1cc(OC)c(Cl)c(Nc2ncncc2-c2cc(Nc3ccc(CN4CCN(C(=O)N(C)C)CC4)cn3)ncn2)c1Cl` [Compound 19, 4-{6-[4′-(2,6-Dichloro-3,5-dimethoxy-phenylamino)-[4,5′]bipyrimidinyl-6-ylamino]-pyridin-3-ylmethyl}-piperazine-1-carboxylic acid dimethyl-amide] stands < 0.1 µM.

Turning to `CCN1CCN(Cc2ccc(Nc3cc(-c4cncnc4Nc4c(Cl)c(OC)cc(OC)c4Br)ncn3)nc2)CC1` [Compound 50, N4′-(2-Bromo-6-chloro-3,5-dimethoxy-phenyl)-N6-[5-(4-ethyl-piperazin-1-ylmethyl)-pyridin-2-yl]-[4,5′]bipyrimidinyl-6,4′-diamine], the GI50 (class symbols) was < 0.1 µM. As to `COc1cc(OC)c(Cl)c(Nc2ncncc2-c2cc(Nc3ccc(CN4CCN(CCO)CC4)cn3)ncn2)c1Cl` [Compound 75, 2-(4-{6-[4′-(2,6-Dichloro-3,5-dimethoxy-phenylamino)-[4,5′]bipyrimidinyl-6-yl-amino]-pyridin-3-ylmethyl}-piperazin-1-yl)-ethanol], under “class symbols”, the GI50 is < 0.1 µM.

Consider `COc1cc(OC)c(Cl)c(Nc2ncncc2-c2cc(Nc3ccc(CN4CCN(C)CC4)cn3)ncn2)c1Cl` [Compound 3, N4′-(2,6-Dichloro-3,5-dimethoxy-phenyl)-N6-[5-(4-methyl-piperazin-1-ylmethyl)-pyridin-2-yl]-[4,5′]bipyrimidinyl-6,4′-diamine], for which the GI50 (class symbols) is < 0.1 µM. Consider `COc1cc(OC)c(Cl)c(Nc2ncncc2-c2cc(Nc3cccc(C(C)O)c3)ncn2)c1F` (stereo not shown) [Compound 77, 1-{3-[4′-(2-Chloro-6-fluoro-3,5-dimethoxy-phenylamino)-[4,5′]bipyrimidinyl-6-yl-amino]-phenyl}-ethanol], for which the GI50 (class symbols) is < 0.1 µM.

As for `CCN1CCN(c2ccc(Nc3cc(-c4cncnc4Nc4c(Cl)c(OC)cc(C(=O)OC)c4Cl)ncn3)nc2)CC1` [Compound 41, 2,4-Dichloro-3-{6-[5-(4-ethyl-piperazin-1-yl)-pyridin-2-ylamino]-[4,5′]bipyrimidinyl-4′-ylamino}-5-methoxy-benzoic acid methyl ester], under “class symbols”, the 50% growth inhibitory concentration (GI50) is < 0.1 µM. Same read-out and setting: under `CCNC(=O)c1cc(OC)c(Cl)c(Nc2ncncc2-c2cc(Nc3ccc(CN4CCN(C)CC4)cn3)ncn2)c1Cl` [Compound 34, 2,4-Dichloro-N-ethyl-5-methoxy-3-{6-[5-(4-methyl-piperazin-1-ylmethyl)-pyridin-2-ylamino]-[4,5′]bipyrimidinyl-4′-ylamino}-benzamide] stands 0.25 to 0.5 µM; under `COc1cc(OC)c(Cl)c(Nc2ncncc2-c2cc(NC(=O)NCCN3CCOCC3)ncn2)c1Cl` [Compound 9, 1-[4′-(2,6-Dichloro-3,5-dimethoxy-phenylamino)-[4,5′]bipyrimidinyl-6-yl]-3-(2-morpholin-4-yl-ethyl)-urea], < 0.1 µM.

On to `COc1cc(OC)c(Cl)c(Nc2ncncc2-c2cc(Nc3ccc(CN4CCCCC4)cn3)ncn2)c1Cl` [Compound 22, N4′-(2,6-Dichloro-3,5-dimethoxy-phenyl)-N6-(5-piperidin-1-ylmethyl-pyridin-2-yl)-[4,5′]bipyrimidinyl-6,4′-diamine], for which the concentration for 50% growth inhibition (GI50) (class symbols) is < 0.1 µM. `COc1cc(OC)c(Cl)c(Nc2ncncc2-c2cc(Nc3ccc(CN4CCN(C(=O)CO)CC4)cn3)ncn2)c1F` [Compound 88, 1-(4-{6-[4′-(2-Chloro-6-fluoro-3,5-dimethoxy-phenylamino)-[4,5′]bipyrimidinyl-6-ylamino]-pyridin-3-ylmethyl}-piperazin-1-yl)-2-hydroxy-ethanone]: where the note is “class symbols”, the GI50 was < 0.1 µM. As for `COc1ccc(F)c(Nc2nccnc2-c2cc(N)ncn2)c1F` [Compound 103, {6-[3-(2,6-Difluoro-3-methoxy-phenylamino)-pyrazin-2-yl]-pyrimidin-4-yl}-amine], the GI50 (given as bound) was > 0.5 µM.

Consider `CCN1CCN(c2ccc(Nc3cc(-c4cncnc4Nc4c(Cl)c(OC)cc(OC)c4Cl)ncn3)cc2)CC1` [Compound 10, N4′-(2,6-Dichloro-3,5-dimethoxy-phenyl)-N6-[4-(4-ethyl-piperazin-1-yl)-phenyl]-[4,5′]bipyrimidinyl-6,4′-diamine], for which, for the setting “class symbols”, the GI50 was < 0.1 µM. Consider `COc1cc(OC)c(Cl)c(Nc2ncncc2-c2cc(Nc3cc(CCN4CCOCC4)ccn3)ncn2)c1F` [Compound 56, N4′-(2-Chloro-6-fluoro-3,5-dimethoxy-phenyl)-N6-[4-(2-morpholin-4-yl-ethyl)-pyridin-2-yl]-[4,5′]bipyrimidinyl-6,4′-diamine], for which the GI50 (class symbols) was < 0.1 µM.

For `Clc1cccc(Cl)c1Nc1nccnc1-c1cc(Nc2ccc(CN3CCOCC3)cn2)ncn1` [Compound 107, 6-(3-(2,6-dichlorophenylamino)pyrazin-2-yl)-N-(5-(morpholinomethyl)pyridin-2-yl)pyrimidin-4-amine], the concentration for 50% growth inhibition (GI50) (given as bound) was > 0.5 µM. For the molecule `COc1cc(OC)c(Cl)c(Nc2ncncc2-c2cc(Nc3cc(CN4CCOCC4)ccn3)ncn2)c1F` [Compound 46, N4′-(2-Chloro-6-fluoro-3,5-dimethoxy-phenyl)-N6-(4-morpholin-4-ylmethyl-pyridin-2-yl)-[4,5′]bipyrimidinyl-6,4′-diamine], the GI50 (class symbols) is < 0.1 µM. Still for that read-out and setting: to `CCN1CCN(c2ccc(Nc3cc(-c4cncnc4Nc4c(F)c(OC)cc(OC)c4Cl)ncn3)nc2)CC1` [Compound 43, N4′-(2-Chloro-6-fluoro-3,5-dimethoxy-phenyl)-N6-[5-(4-ethyl-piperazin-1-yl)-pyridin-2-yl]-[4,5′]bipyrimidinyl-6,4′-diamine] belongs < 0.1 µM; to `COc1cc(OC)c(Cl)c(Nc2nccnc2-c2cc(Nc3ccc(CN4CCN(CCO)CC4)cn3)ncn2)c1Cl` [Compound 100], < 0.1 µM.
